# Patent US9044478B2, “Use of 1,4-bis (3-aminoalkyl) piperazine derivatives in the treatment of neurodegenerative diseases” (INSTITUT NATIONAL DE LA SANTE ET DE LA RECHERCHE MEDICALE, priority 2004, dated 2015)
# Experiments:
# [1] = system: endothelial cell monolayer; test: Toxicity on the endothelial cell monolayer of the BBB model; format: cell-based; settings: concentration of 10 μM
# Source text: (§1) The ability of some compounds to cross the Blood-Brain Barrier (BBB) has been evaluated, using an in vitro model (Cecchelli, R., et al., In vitro model for evaluating drug transport across the blood-brain barriers. Adv Drug Deliv Rev, 1999. 36(2-3): p. 165-178). The described model consists in brain capillary endothelial cells co-cultured with glial cells, thereby closely mimicking the in vivo conditions (Lundquist, S, and M. Renftel, The use of in vitro cell culture models for mechanistic studies and as permeability screens for the blood-brain barrier in the pharmaceutical industry-background and current status in the drug discovery process. Vascul Pharmacol 2002. 38(6): p. 355-64) and developed by CELLIAL Technologies SA.
# (§2) The transport of drug was good for example 16 and moderate for example 23. Indeed, the permeability coefficients obtained for example 16 (2.26×10^−3 cm/min) and example 23 (1.81×10^−3 cm/min) indicate that these compounds cross the BBB and are good candidates as CNS drugs.
# [2] = system: brain capillary endothelial cells co-cultured with glial cells; test: In vitro Blood-Brain Barrier model, drug transport; format: in vitro ADME; settings: for Permeability coefficient: in vitro BBB model
# Source text: as §1, §2
# [3] = Solubility in the BBB screening; format: physicochemical
# Source text: as §2
# Aβ1-42 = test: Aβ 1-42 of the cell supernatant quantified by ELISA (Innotest β-Amyloid1-42); format: cell-based, human
# Protocol: (§3) The human neuroblastoma cell line SH-SYSY were cultured in Dulbecco's modified Eagle medium supplemented with 10% fetal calf serum, 2 mM L-glutamine, 1 mM non-essential amino-acids, penicillin/streptomycin (Invitrogen SARL, Cergy Pontoise, France) and 200 μg/ml G418 (to select for APP expression) in a 5% CO2 humidified incubator at 37° C. APP751 cDNA with the Swedish mutation (APP^Sw) was subcloned into stably eukaryotic expression vector pcDNA3 (Invitrogen), allowing for a G418 (Invitrogen) selection of stable clones. This APP cDNA was stably transfected into SH-SY5Y cells using the ethyleneimine polymer ExGen 500 (Euromedex) according to the manufacturer's instructions.
# (§4) Cells were plated into 6-well plates 24 h before drug exposure. […] After treatment, the medium was collected for the dosage of Aβ1-42. Cells were washed with phosphate-buffered saline and scraped with a policeman rubber in 70 μl of Laemmli sample buffer with protease inhibitors (Complete Mini Roche Molecular Biochemicals, Meylan, France), sonicated and heat-treated for 5 min at 100° C. Protein concentration was established using the PlusOne™ 2-D Quant Kit (Amersham Biosciences, Orsay, France) and samples were kept at −80° C. until used.
# The collected medium was spun at 200 g to eliminate the cell debris and Aβ1-42 concentration was determined using the Innotest® β-Amyloid1-42 (Innogenetics, Ghent, Belgium) according to the manufacturer's instructions.
# (§5) SKNSH SY5Y transfected cells were grown in the presence of drugs at different concentrations, for example at 1 μM or 5 μM, then cells were harvested and analyzed for their APP-CTF content, using the western-blot approach, while Aβ 1-42 of the cell supernatant Was quantified by ELISA, as described in material and methods. For each compound, normal levels have the arbitrary value of 1. For example, if one APP-CTF is increased 10 times, the value is reported as 10. For Aβ peptide, if decreased of 60%, the value is reported as 0.4 (40% remaining).
# APP-CTFs = APP-CTFs content of APPSw-transfected SH-SY5Y cells by western blot; format: cell-based, human; design: key to β (APP-CTF β stub level, normal level = 1) / α (APP-CTF α stub level, normal level = 1) / γ (APP-CTF γ stub level, normal level = 1) / CTFs (APP-CTFs level, normal level = 1): fold of normal level, normal = 1
# Protocol: as §3, §4
# The APPCter-C17 antibody is raised against the last 17 amino acids of the human APP sequence (Sergeant, N., David, J. P., Champain, D., Ghestem, A., Wattez, A., and Delacourte, A. (2002) J Neurochem 81, 663-672). This polyclonal antibody detects all APP-CTFs fragments. The tubulin signal was used as a loading control and to normalize the APP-CTFs content. Anti-mouse or anti-rabbit secondary antibodies coupled with horseradish peroxidase were purchased at SIGMA Immunochemicals (Saint Quentin Fallavier, France).
# The same quantity of total proteins (20 μg/lane) was loaded on a 16.5% Tris-tricine polyacrylamide gel. Tris-tricine SDS-polyacrylamide gel electrophoresis (PAGE) was performed following the procedure of Schagger and Von Jagow (1987) (Schagger, H., and von Jagow, G. (1987) Anal Biochem 166, 368-379) with a protean II Xi Cell (Bio-Rad, Marnes la coquette, France). Proteins were transferred to nitrocellulose membrane at 2.5 mA/cm^2 per gel using the SemiDry Novablot Transfer system (Amersham Biosciences, Orsay, France), according to the manufacturer's instructions. Proteins were reversibly stained with Ponceau Red to check the quality of the transfer. Membranes were blocked in 25 mM Tris-HCl pH 8.0, 150 mM NaCl, 0.1% Tween-20 (v/v) and 5% (w/v) of skimmed milk for 30 min. Membranes were incubated overnight at 4° C. with appropriate dilutions of the primary antibodies, and incubated for 1 h at room temperature with secondary antibody.
# Western blot films were digitized using an UMax scanner calibrated for optical densities (Amersham Biosciences). The Image-MASTER 1D ELITE Software (Amersham Biosciences) was used to quantify the signal, and data were collected using Excel Software (Microsoft, LesUlis, France).
# as §5
# [4] = greater concentration (5 μM) at 24 hours
# [5] = low concentration (1 μM) at 6 hours
# [6] = 24 h, 1 μM as printed (fourth column)
compound,measurement,setting,value
N^4-(3-{4-[3(diisobutylamino)propyl]piperizano}propyl)-benzimidazol-2-amine [Example 16],Toxicity on the endothelial cell monolayer,[1],not toxic
same,Transport of drug across the in vitro BBB,[2],good
same,Diffusion across the filter membrane coated with collagen and without cells,[2],able to diffuse across the filter membrane
same,Permeability coefficient,[2],0.00226 cm/min
same,Solubility,[3],soluble
"1,4-bis{3-[N-n-heptyl)amino]propyl}piperazine [Example 10]",Decrease of Aβ peptide levels compared to the control (FIG. 1),Aβ1-42; [4],efficiency is confirmed
same,Decrease of Aβ peptide levels compared to the control (FIG. 1),Aβ1-42; [5],efficient to decrease Aβ peptide levels
Clc1ccc(CNCCCN2CCN(CCCNCc3ccc(Cl)cc3)CC2)cc1 [Example 4],Efficiency for Aβ peptide (FIG. 1),Aβ1-42,particularly high efficiency
same,"Aβ (Aβ peptide level, normal level = 1; fraction remaining)","Aβ1-42; 6 h, 1 μM",0.2
same,"Aβ (Aβ peptide level, normal level = 1; fraction remaining)","Aβ1-42; 6 h, 5 μM",0
same,"Aβ (Aβ peptide level, normal level = 1; fraction remaining)","Aβ1-42; 24 h, 1 μM (third column)",1
same,"Aβ (Aβ peptide level, normal level = 1; fraction remaining)",Aβ1-42; [6],0.1
same,Decrease of Aβ peptide levels compared to the control (FIG. 1),Aβ1-42; [4],efficiency is confirmed
same,Decrease of Aβ peptide levels compared to the control (FIG. 1),Aβ1-42; [5],efficient to decrease Aβ peptide levels
same,Efficiency for α and γ-APP-CTFs stubs,APP-CTFs,particularly high efficiency
same,"CTFs (APP-CTFs level, normal level = 1)","APP-CTFs; 6 h, 1 μM",6
same,"α (APP-CTF α stub level, normal level = 1)","APP-CTFs; 6 h, 1 μM",14
same,"β (APP-CTF β stub level, normal level = 1)","APP-CTFs; 6 h, 1 μM",0.8
same,"γ (APP-CTF γ stub level, normal level = 1)","APP-CTFs; 6 h, 1 μM",9.6
same,"CTFs (APP-CTFs level, normal level = 1)","APP-CTFs; 6 h, 5 μM",5
same,"α (APP-CTF α stub level, normal level = 1)","APP-CTFs; 6 h, 5 μM",11
same,"β (APP-CTF β stub level, normal level = 1)","APP-CTFs; 6 h, 5 μM",1.2
same,"γ (APP-CTF γ stub level, normal level = 1)","APP-CTFs; 6 h, 5 μM",5.7
same,"CTFs (APP-CTFs level, normal level = 1)","APP-CTFs; 24 h, 1 μM (third column)",3.5
same,"α (APP-CTF α stub level, normal level = 1)","APP-CTFs; 24 h, 1 μM (third column)",3.5
same,"β (APP-CTF β stub level, normal level = 1)","APP-CTFs; 24 h, 1 μM (third column)",0.8
same,"γ (APP-CTF γ stub level, normal level = 1)","APP-CTFs; 24 h, 1 μM (third column)",5.1
same,"CTFs (APP-CTFs level, normal level = 1)",APP-CTFs; [6],65
same,"α (APP-CTF α stub level, normal level = 1)",APP-CTFs; [6],7
same,"β (APP-CTF β stub level, normal level = 1)",APP-CTFs; [6],5
same,"γ (APP-CTF γ stub level, normal level = 1)",APP-CTFs; [6],14.4
N^4-[3-(4-{3-[diisobutylamino]propyl}piperizano)propyl]-4-benzyloxyamine [Example 23],Toxicity on the endothelial cell monolayer,[1],not toxic
same,Transport of drug across the in vitro BBB,[2],moderate
same,Diffusion across the filter membrane coated with collagen and without cells,[2],able to diffuse across the filter membrane
same,Permeability coefficient,[2],0.00181 cm/min
same,Solubility,[3],soluble
